Target: Tyrosine-protein kinase BTK (Homo sapiens, UniProt Q06187)
Experiment: Btk Enzyme Activity Assay: BTK enzymatic activity was determined with the LANCE (Lanthanide Chelate Excite) TR-FRET (Time-resolved fluorescence resonance energy transfer) assay. […] Phosphorylation reactions were allowed to proceed for 120 minutes. […] After 60 minutes incubation with detection reagents, reaction plates were read on a PerkinElmer EnVision plate reader using standard TR-FRET protocol. […] IC50 values were determined by 4 parameter robust fit of TR-FRET ratio values vs. (Log10)) compound concentrations.

Tyrosine-protein kinase BTK, sequence (Q06187 whole entry): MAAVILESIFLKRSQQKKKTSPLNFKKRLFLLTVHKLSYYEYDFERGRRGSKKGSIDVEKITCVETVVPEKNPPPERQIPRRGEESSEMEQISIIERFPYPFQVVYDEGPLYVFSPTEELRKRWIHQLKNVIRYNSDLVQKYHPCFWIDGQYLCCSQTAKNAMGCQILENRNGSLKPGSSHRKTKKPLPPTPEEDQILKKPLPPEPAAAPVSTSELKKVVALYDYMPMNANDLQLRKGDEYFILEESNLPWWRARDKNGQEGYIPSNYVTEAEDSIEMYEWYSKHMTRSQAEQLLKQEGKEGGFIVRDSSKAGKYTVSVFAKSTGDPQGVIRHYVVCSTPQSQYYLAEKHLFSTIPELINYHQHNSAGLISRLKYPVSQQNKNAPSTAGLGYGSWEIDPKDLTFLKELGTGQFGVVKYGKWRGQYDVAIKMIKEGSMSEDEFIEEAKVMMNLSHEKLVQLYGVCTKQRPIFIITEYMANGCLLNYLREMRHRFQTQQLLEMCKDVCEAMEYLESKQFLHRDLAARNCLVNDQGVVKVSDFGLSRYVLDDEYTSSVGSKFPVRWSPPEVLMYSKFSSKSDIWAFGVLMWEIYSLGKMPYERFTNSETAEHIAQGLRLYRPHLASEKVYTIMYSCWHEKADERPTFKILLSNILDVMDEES

IC50: 0.16 nM
Compound: Nc1nccn2c([C@@H]3CC[C@@H](CC(=O)O)C3)nc(-c3ccc(C(=O)Nc4cc(C(F)(F)F)ccn4)cc3)c12

Source: ChEMBL document CHEMBL5725743, “Benzamide imidazopyrazine Btk inhibitors” (2018)
